± gives the expanded uncertainty stated by the source.

For the data set the following is noted: Liquid, Vibrating tube method.

As for `CCCCn1cc[n+](C)c1.F[P-](F)(F)(F)(F)F` [1-butyl-3-methylimidazolium hexafluorophosphate], the mass density reads like this: (298.15 K) 1366.57 ± 0.55 kg/m3; (303.15 K) 1362.23 ± 0.54 kg/m3; (308.15 K) 1357.92 ± 0.54 kg/m3; (313.15 K) 1353.63 ± 0.53 kg/m3; (323.15 K) 1345.33 ± 0.53 kg/m3.
Turning to `CCCCn1cc[n+](C)c1.F[B-](F)(F)F` [1-butyl-3-methylimidazolium tetrafluoroborate], the mass density (298.15 K) came to 1192.03 ± 0.39 kg/m3; the mass density (303.15 K) was 1188.38 ± 0.39 kg/m3; the mass density (313.15 K) is recorded as 1181.25 ± 0.38 kg/m3; the mass density (323.15 K) is on record as 1174.18 ± 0.37 kg/m3; the mass density (333.15 K) worked out at 1167.09 ± 0.37 kg/m3; the mass density (343.15 K) is listed as 1160.17 ± 0.36 kg/m3. For the same compound, for the setting “353.15 K”, the mass density is 1152.63 ± 0.36 kg/m3.

As usually defined, the mass density is mass per unit of volume.

The values above are taken from the NIST ThermoML archive (doi:10.1021/je800331n).
